# Reference: PubChem BioAssay AID1324 (NMMLSC, 2008)
# The source made the active and inactive calls. The rule behind the calls is not given here.
# Biological target: glutathione S-transferase (GST-GSH binding)
# Test: GST–glutathione interaction disruption – biochemical, multiplex beads, flow cytometry, HPSMTB buffer, profiling panel (AID 1324);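 note: glutathione beads loaded with GST-green fluorescent protein and no fluorescent Bim peptide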
# Conditions: multiplex bead flow cytometry, MCF
row,SMILES,EC50
1,COc1cc(OC)c([N+](=O)[O-])cc1/C=N/NC(=O)c1ccncc1,inactive
2,O=C(Nc1ccc2nc(-c3ccco3)c(-c3ccco3)nc2c1)NC1CC1,8.3 µM
3,O=C(Nc1ccc2nc(-c3ccco3)c(-c3ccco3)nc2c1)N1CCCCCC1,inactive
4,CN1CCc2cccc3c2[C@@H]1Cc1ccc(O)c(O)c1-3,inactive
5,COc1ccc(C2=Nn3c(nnc3-c3ccco3)SC2)cc1OC,4.6 µM

# Same assay, conditions: multiplex bead flow cytometry, MCF, active compounds read high, concentration not given here
row,SMILES,percent span inhibition
1,O=C(Cc1ccccc1)OCCNC(=O)c1cccnc1,inactive
2,O=C(c1cc2ccccc2oc1=O)N(c1ccccc1)C1C=CS(=O)(=O)C1 (stereo not drawn),inactive
3,Cn1c(OCc2cccnc2)nc2c1c(=O)n(Cc1ccccc1)c(=O)n2C,inactive
4,Cc1cccc(NC(=S)N2CCn3cccc3C2c2cccnc2)c1 (stereo not drawn),inactive
5,S=c1[nH]cc(-c2ccccc2)n1-c1ccccc1Cl,inactive
6,Cc1cccc(-n2c(-c3ccncc3)n[nH]c2=S)c1,inactive
7,NNC(=O)COc1ccccc1F,inactive
8,Cc1c(Cc2ccccc2)sc(N)c1C(N)=O,inactive
9,O=C(CSc1nnc(Cc2ccccc2)o1)NCc1ccco1,inactive
10,CCOC(=O)/C(=C\c1ccc(Cl)cc1)c1nc2sc(C)c(C)c2c(=O)[nH]1,inactive
11,Cc1cc(C)nc(/N=c2/ssnc2Cl)c1,inactive
12,c1ccc2c(N3CCOCC3)nc(N3CCOCC3)nc2c1,inactive
13,O=C(NNC(=O)C12CC3CC(CC(C3)C1)C2)c1ccco1,inactive
14,N#Cc1cccc(N=c2ssnc2Cl)c1,inactive
15,CCOc1cccc(CNc2ccc(O)cc2)c1OCc1ccccc1Cl,inactive
16,O=C(Nc1ccc(Cl)cn1)Nc1ccccc1F,inactive
17,CCOC(=O)c1ccc(NC(=O)CSCCC(=O)O)cc1,inactive
18,CCN1CCN(c2cc(C)c3cc(NC(=S)N4CC(C)CC(C)C4)ccc3n2)CC1 (stereo not drawn),inactive
19,CC[n+]1c(/C=C/C=C/N(C(C)=O)c2ccccc2)sc2ccccc21,inactive
20,CCC(=O)OCCNc1cc(Sc2nccn2C)c2nonc2c1[N+](=O)[O-],inactive
21,COc1ccc(-c2nnc(SCC(=O)Nc3nc4ccccc4s3)n2C)cc1,inactive
22,COC(=O)CSc1ncnc2c1sc1nc(-c3ccco3)c3c(c12)CC(C)(C)OC3,inactive
23,Cc1cc(NC(=O)CCSc2ccccc2)ccc1Br,inactive

row,SMILES,percent span inhibition
1,Clc1nssc1=Nc1ccc(Br)cc1,inactive
2,O=C1c2ccccc2C(=O)N1CN(C(=O)COc1ccc(Cl)cc1Cl)c1cccc(F)c1,inactive
3,Cc1ccc(/C=N/N(C)C2=NS(=O)(=O)c3ccccc32)o1,inactive
4,Cc1ccc(-c2ccc(/C=C/C(=O)c3ccccc3)o2)cc1,inactive
5,Cc1onc(-c2ccccc2Cl)c1C(=O)Nc1nn[nH]n1,inactive
6,CC(NCc1ccc(-c2ccccc2)cc1)C(O)c1ccccc1 (stereo not drawn),inactive
7,COc1ccc(OC)c2sc(NC(=O)c3ccc(Br)s3)nc12,inactive
8,CCCC(=O)OCCNc1cc(Sc2nccn2C)c2nonc2c1[N+](=O)[O-],inactive
9,CCN1CCN(c2ccc(NC(=O)c3cccc4ncccc34)cc2)CC1,inactive
10,CN(CC(=O)O/N=C(\N)c1ccc([N+](=O)[O-])cc1)S(=O)(=O)c1ccccc1,inactive
11,Cc1ccc(N=C2NC(=O)/C(=C/C=C/c3ccco3)S2)cc1,inactive
12,NCC(c1ccccc1)c1c[nH]c2ccccc12 (stereo not drawn),inactive
13,O=C(c1ccc(CNS(=O)(=O)c2ccc(Br)cc2)cc1)N1CCCC1,inactive
14,COc1ccccc1-n1c(SCC(=O)N2CCc3ccccc32)nc2c(c1=O)SCC2,inactive
15,CS(=O)(=O)NN1C(=O)c2ccccc2NC1c1cccs1 (stereo not drawn),inactive
16,COc1ccc(C(=O)Nc2ccc(NC(=O)c3cccs3)cc2)cc1Cl,inactive
17,CN(/N=C/c1cccnc1)C1=NS(=O)(=O)c2ccccc21,inactive
18,COc1ccc2nc(C)cc(SCC(=O)N/N=C/c3ccc(O)c(O)c3)c2c1,inactive
19,C/C(=N\NC(=O)COc1ccc(C(C)(C)C)cc1)c1ccc2c(c1)OCCO2,inactive
20,Cc1ccc(-c2ccc(/C=C3\SC(N4CCOCC4)=NC3=O)o2)cc1,inactive
21,CN(C)S(=O)(=O)N(CC(=O)Nc1ccccc1C(F)(F)F)c1ccccc1,inactive
22,O=C(NCCCN1CCCC1=O)NC1CCCCC1,inactive
23,Cc1cc(C)cc(NS(=O)(=O)c2ccc3c(c2)c(=O)n(C)c(=O)n3C)c1,inactive

row,SMILES,percent span inhibition
1,O=[N+]([O-])c1c(NCCO)cc(Sc2nc3ccccc3s2)c2nonc12,inactive
2,COc1ccc(N2C(=O)C(Cl)=C(Nc3c(C)n(C)n(-c4ccccc4)c3=O)C2=O)cc1,inactive
3,CN(C)C(=O)N1CCC(C(=O)NC2CCCCCCC2)CC1,inactive
4,Cc1cc2n(c1)CCn1c(C)ccc1-2,inactive
5,CCOC(=O)CSc1nnc(-c2cccc(Cl)c2)n1CC,inactive
6,Cc1ccc(/C=C/C(=O)Nc2ccc([N+](=O)[O-])c(NC(=O)/C=C/c3ccc(C)o3)c2)o1,inactive
7,Cc1cc(C(=O)NCCCN(C)C)c2ccccc2n1,inactive
8,CCN(CC)C(=O)COC(=O)c1cc(-c2ccco2)nc2ccccc12,inactive
9,COc1cc(N2CCOCC2)ccc1C=C1C(=O)NC(=O)NC1=O,inactive
10,CCOC(=O)C1CCN(C(=O)Nc2ccc3nc(-c4ccco4)c(-c4ccco4)nc3c2)CC1,inactive
11,CCOc1cc(CNc2ccc(N3CCCCC3)cc2)cc(Br)c1OCC(=O)NC(C)(C)C,inactive
12,CCOc1cc(/C=N/NC(N)=O)ccc1OCC(=O)Nc1ccc(C)c(C)c1,inactive
13,Cc1ccc(-c2ccc(CCC(=O)O)n2NC(=O)c2cccs2)cc1,inactive
14,Cc1nc2scc(-c3ccccc3)c2c(=O)n1N=C1C=CC(=O)C=C1,inactive
15,CNc1nc2ccccc2n1/N=C/c1cccc(OC)c1OC,inactive
16,Cc1ccc(/C=C2\CCCC3=C2NC(=S)NC3c2ccc(C)cc2)cc1 (stereo not drawn),inactive
17,COC(=O)c1ccc(-n2nnnc2SCC(=O)Nc2cc(OC)ccc2OC)cc1,inactive
18,Cc1sc2nc(C(C)C)nc(SCC(=O)N3c4ccccc4CC3C)c2c1C (stereo not drawn),inactive
19,Nc1c(C(=O)NCc2ccco2)sc2nc3c(cc12)C(=O)CCC3,inactive
20,CCCn1c(C)cc(-c2csc(N)n2)c1C,inactive
21,Cc1cc(-c2nnc(CCC(=O)NC(C)c3cccc4ccccc34)o2)no1 (stereo not drawn),inactive
22,CN1N=C(C(=O)N2CCCC(C(=O)c3cccc(C(F)(F)F)c3)C2)CCC1=O (stereo not drawn),inactive
